The test system of the assay is MV-4-11 cells. In words: Gene expression microarray analysis (Affymetrix PrimeView) and GSEA. Format: cell-based, human. Details: RFU PODN (11730768_x_at) / Fold change /veh PODN (11730768_x_at) / RFU LINC00158 (11744669_a_at) / Fold change /veh LINC00158 (11744669_a_at) / RFU DUSP10 (11751237_a_at) / Fold change /veh DUSP10 (11751237_a_at) / RFU ID3 (11757404_x_at) / Fold change /veh ID3 (11757404_x_at) / RFU PLEKHG5 (11737974_s_at) / Fold change /veh PLEKHG5 (11737974_s_at) / RFU LRRC4B (11730491_at) / Fold change /veh LRRC4B (11730491_at) / RFU GIMAP4 (11747438_a_at) / Fold change /veh GIMAP4 (11747438_a_at) / RFU KRT8 (11758183_x_at) / Fold change /veh KRT8 (11758183_x_at) / RFU CNN1 (11734310_a_at) / Fold change /veh CNN1 (11734310_a_at) / RFU VPS37D (11726825_at) / Fold change /veh VPS37D (11726825_at) / RFU C10orf10 (11716522_x_at) / Fold change /veh C10orf10 (11716522_x_at) / RFU KIR2DL2 /// KIR2DL4 /// KIR2DL5A /// KIR2DL5B /// KIR2DS1 /// KIR2DS2 /// KIR2DS3 /// KIR2DS4 /// KIR3DL3 /// KIR3DL3 /// KIR3DS1 (11738374_at) / Fold change /veh KIR2DL2 /// KIR2DL4 /// KIR2DL5A /// KIR2DL5B /// KIR2DS1 /// KIR2DS2 /// KIR2DS3 /// KIR2DS4 /// KIR3DL3 /// KIR3DL3 /// KIR3DS1 (11738374_at) / RFU C1QL1 (11718748_at) / Fold change /veh C1QL1 (11718748_at) / RFU TMPRSS4 (11747572_a_at) / Fold change /veh TMPRSS4 (11747572_a_at) / RFU HAMP (11756126_x_at) / Fold change /veh HAMP (11756126_x_at) / RFU RNFT2 (11725882_a_at) / Fold change /veh RNFT2 (11725882_a_at) / RFU NR4A2 (11747474_a_at) / Fold change /veh NR4A2 (11747474_a_at) / RFU ABCC12 (11746883_a_at) / Fold change /veh ABCC12 (11746883_a_at) / RFU TMEM136 (11760407_x_at) / Fold change /veh TMEM136 (11760407_x_at) / RFU CLDN22 /// WWC2 (11732394_at) / Fold change /veh CLDN22 /// WWC2 (11732394_at) / RFU HLA-DPB1 (11760878_x_at) / Fold change /veh HLA-DPB1 (11760878_x_at) / RFU SPINT1 (11716480_a_at) / Fold change /veh SPINT1 (11716480_a_at) / RFU GAP43 (11754022_s_at) / Fold change /veh GAP43 (11754022_s_at) / RFU A4GNT (11735810_at) / Fold change /veh A4GNT (11735810_at) / RFU PRB3 (11715151_x_at) / Fold change /veh PRB3 (11715151_x_at) / RFU TUBB4B (11761932_at) / Fold change /veh TUBB4B (11761932_at) / RFU CAPN14 (11732068_a_at) / Fold change /veh CAPN14 (11732068_a_at) / RFU TMCC2 (11721928_a_at) / Fold change /veh TMCC2 (11721928_a_at) / RFU IRGQ (11745062_a_at) / Fold change /veh IRGQ (11745062_a_at) / RFU FAM174B (11720279_a_at) / Fold change /veh FAM174B (11720279_a_at) / RFU TMPRSS4 (11748680_a_at) / Fold change /veh TMPRSS4 (11748680_a_at) / RFU FAM212B (11763350_a_at) / Fold change /veh FAM212B (11763350_a_at) / RFU PLEKHG5 (11743358_a_at) / Fold change /veh PLEKHG5 (11743358_a_at) / RFU ZSCAN30 (11745921_a_at) / Fold change /veh ZSCAN30 (11745921_a_at) / RFU CMKLR1 (11741424_a_at) / Fold change /veh CMKLR1 (11741424_a_at) / RFU LOC101060620 /// MAPK8IP1 (11723275_at) / Fold change /veh LOC101060620 /// MAPK8IP1 (11723275_at) / RFU SPTSSB (11747773_x_at) / Fold change /veh SPTSSB (11747773_x_at) / RFU PRSS12 (11739890_at) / Fold change /veh PRSS12 (11739890_at) / RFU BIN1 (11741810_x_at) / Fold change /veh BIN1 (11741810_x_at) / RFU WNT11 (11732464_a_at) / Fold change /veh WNT11 (11732464_a_at) / RFU C10orf10 (11716521_a_at) / Fold change /veh C10orf10 (11716521_a_at) / RFU C5orf56 (11738089_at) / Fold change /veh C5orf56 (11738089_at) / RFU CYB561 (11721691_x_at) / Fold change /veh CYB561 (11721691_x_at) / RFU ANKRD19P (11752326_a_at) / Fold change /veh ANKRD19P (11752326_a_at) / RFU OR2T12 /// OR2T33 /// OR2T8 (11738714_s_at) / Fold change /veh OR2T12 /// OR2T33 /// OR2T8 (11738714_s_at) / RFU VCAN (11748164_a_at) / Fold change /veh VCAN (11748164_a_at) / RFU JSRP1 (11732532_at) / Fold change /veh JSRP1 (11732532_at) / RFU KRTAP10-11 (11738290_x_at) / Fold change /veh KRTAP10-11 (11738290_x_at) / RFU MYO3A (11730013_a_at) / Fold change /veh MYO3A (11730013_a_at) / RFU EBF3 (11725865_a_at) / Fold change /veh EBF3 (11725865_a_at) / RFU CAMK2N1 (11719241_x_at) / Fold change /veh CAMK2N1 (11719241_x_at) / RFU C5orf56 (11738088_a_at) / Fold change /veh C5orf56 (11738088_a_at) / RFU OLFML3 (11715873_a_at) / Fold change /veh OLFML3 (11715873_a_at) / RFU LOC100653217 /// NTM (11731650_a_at) / Fold change /veh LOC100653217 /// NTM (11731650_a_at) / RFU MAPK11 (11762145_a_at) / Fold change /veh MAPK11 (11762145_a_at) / RFU FIZ1 (11724087_x_at) / Fold change /veh FIZ1 (11724087_x_at) / RFU OASL (11726364_x_at) / Fold change /veh OASL (11726364_x_at) / RFU SOX15 (11748057_x_at) / Fold change /veh SOX15 (11748057_x_at) / RFU CD79A (11719716_a_at) / Fold change /veh CD79A (11719716_a_at) / RFU HIST1H1D (11736915_at) / Fold change /veh HIST1H1D (11736915_at) / RFU CASKIN2 (11723855_a_at) / Fold change /veh CASKIN2 (11723855_a_at) / RFU LOC730098 (11760151_x_at) / Fold change /veh LOC730098 (11760151_x_at) / RFU OR4N2 (11742367_at) / Fold change /veh OR4N2 (11742367_at) / RFU PRRT2 (11749266_a_at) / Fold change /veh PRRT2 (11749266_a_at) / RFU SNX32 (11753110_a_at) / Fold change /veh SNX32 (11753110_a_at) / RFU CDHR5 (11726645_a_at) / Fold change /veh CDHR5 (11726645_a_at) / RFU RCAN1 (11760418_a_at) / Fold change /veh RCAN1 (11760418_a_at) / RFU FAM167A (11723789_a_at) / Fold change /veh FAM167A (11723789_a_at) / RFU FAM26E (11764081_at) / Fold change /veh FAM26E (11764081_at) / RFU ISYNA1 (11749810_s_at) / Fold change /veh ISYNA1 (11749810_s_at) / RFU ACY1 (11761880_at) / Fold change /veh ACY1 (11761880_at) / RFU 11764098_at / Fold change /veh 11764098_at / RFU SAMD14 (11745864_x_at) / Fold change /veh SAMD14 (11745864_x_at) / RFU NPB (11741838_a_at) / Fold change /veh NPB (11741838_a_at) / RFU TMPRSS6 (11731388_a_at) / Fold change /veh TMPRSS6 (11731388_a_at) / RFU KRTAP10-2 (11738614_at) / Fold change /veh KRTAP10-2 (11738614_at) / RFU ARHGAP8 /// PRR5-ARHGAP8 (11727945_x_at) / Fold change /veh ARHGAP8 /// PRR5-ARHGAP8 (11727945_x_at) / RFU KRTAP5-7 /// NADSYN1 (11734609_at) / Fold change /veh KRTAP5-7 /// NADSYN1 (11734609_at) / RFU RASL12 (11751679_a_at) / Fold change /veh RASL12 (11751679_a_at) / RFU CDKN2B (11736163_a_at) / Fold change /veh CDKN2B (11736163_a_at) / RFU PRF1 (11729649_at) / Fold change /veh PRF1 (11729649_at) / RFU, ZNF638 /// ZNF638-IT1 / Fold change vs veh, ZNF638 /// ZNF638-IT1 / RFU, PANK3 / Fold change vs veh, PANK3 / RFU, SH3YL1 / Fold change vs veh, SH3YL1 / RFU, ZEB2 / Fold change vs veh, ZEB2 / RFU, NRIP1 / Fold change vs veh, NRIP1 / RFU, PTTG1IP / Fold change vs veh, PTTG1IP / RFU, CAPN2 / Fold change vs veh, CAPN2 / RFU, MED14 / Fold change vs veh, MED14 / RFU, SNORA58 / Fold change vs veh, SNORA58 / RFU, C1orf63 / Fold change vs veh, C1orf63 / RFU, LRRFIP1 / Fold change vs veh, LRRFIP1 / RFU, NDUFAF7 / Fold change vs veh, NDUFAF7 / RFU, SLC12A2 / Fold change vs veh, SLC12A2 / RFU, IBTK / Fold change vs veh, IBTK / RFU, ESF1 / Fold change vs veh, ESF1 / Fold change vs veh, TMEM50B / RFU, TAOK1 / Fold change vs veh, TAOK1 / RFU, ACBD3 / Fold change vs veh, ACBD3 / RFU, TMA16 / Fold change vs veh, TMA16 / RFU, RWDD3 / Fold change vs veh, RWDD3 / RFU, BCAT1 / Fold change vs veh, BCAT1 / RFU, EDEM3 / Fold change vs veh, EDEM3 / RFU, TMEM33 / Fold change vs veh, TMEM33 / RFU, WDR75 / Fold change vs veh, WDR75 / RFU, AHCTF1 / Fold change vs veh, AHCTF1 / RFU, TFRC / Fold change vs veh, TFRC / RFU, ZDHHC17 / Fold change vs veh, ZDHHC17 / RFU, NOM1 / Fold change vs veh, NOM1 / RFU, ARL8B / Fold change vs veh, ARL8B / RFU, ZBTB11 / Fold change vs veh, ZBTB11 / RFU, TAMM41 / Fold change vs veh, TAMM41 / RFU, KIAA1704 /// LOC100996395 / Fold change vs veh, KIAA1704 /// LOC100996395 / RFU, ING1 / Fold change vs veh, ING1 / RFU, TRMT61B / Fold change vs veh, TRMT61B / RFU, FUBP3 / Fold change vs veh, FUBP3 / RFU, TP53 / Fold change vs veh, TP53 / RFU, TNKS2 / Fold change vs veh, TNKS2 / RFU, ZFP14 / Fold change vs veh, ZFP14 / RFU, ACTR2 / Fold change vs veh, ACTR2 / RFU, PPP3R1 / Fold change vs veh, PPP3R1 / RFU, PIK3R1 / Fold change vs veh, PIK3R1 / RFU, HNRNPA1 / Fold change vs veh, HNRNPA1 / RFU, RNF170 / Fold change vs veh, RNF170 / RFU, ZNF28 / Fold change vs veh, ZNF28 / RFU, RNGTT / Fold change vs veh, RNGTT / RFU, OGT / Fold change vs veh, OGT / RFU, BRD1 / Fold change vs veh, BRD1 / RFU, MARS / Fold change vs veh, MARS / RFU, ZNF655 / Fold change vs veh, ZNF655 / RFU, FAHD1 / Fold change vs veh, FAHD1 / RFU, BDP1 / Fold change vs veh, BDP1 / RFU, LRRCC1 / Fold change vs veh, LRRCC1 / RFU, ARID1A / Fold change vs veh, ARID1A / RFU, ZNF146 / Fold change vs veh, ZNF146 / RFU, ZNF330 / Fold change vs veh, ZNF330 / RFU, GPN3 / Fold change vs veh, GPN3 / RFU, C9orf123 / Fold change vs veh, C9orf123 / RFU, N4BP2L2 / Fold change vs veh, N4BP2L2 / RFU, ARFIP1 / Fold change vs veh, ARFIP1 / RFU, FAM179B / Fold change vs veh, FAM179B / RFU, BCL10 / Fold change vs veh, BCL10 / RFU, UHRF1BP1L / Fold change vs veh, UHRF1BP1L / RFU, BET1 / Fold change vs veh, BET1 / RFU, CNOT2 / Fold change vs veh, CNOT2 / RFU, ZNF268 / Fold change vs veh, ZNF268 / Fold change vs veh, ZNF507 / RFU, DGCR2 / Fold change vs veh, DGCR2 / RFU, WDSUB1 / Fold change vs veh, WDSUB1 / Fold change vs veh, HSP90B1 /// MIR3652 / RFU, ADSS / Fold change vs veh, ADSS / RFU, GK / Fold change vs veh, GK / RFU, ZNF148 / Fold change vs veh, ZNF148 / RFU, TAF9 / Fold change vs veh, TAF9 / RFU, SLC1A5 / Fold change vs veh, SLC1A5 / RFU, SLMO2 / Fold change vs veh, SLMO2 / RFU, ABCC4 / Fold change vs veh, ABCC4 / RFU, LOC101060439 /// RAP1B / Fold change vs veh, LOC101060439 /// RAP1B / RFU, RFX7 / Fold change vs veh, RFX7 / RFU, GTPBP10 / Fold change vs veh, GTPBP10 / RFU, CNEP1R1 / Fold change vs veh, CNEP1R1 / RFU, BIVM-ERCC5 /// ERCC5 / Fold change vs veh, BIVM-ERCC5 /// ERCC5 / RFU, ILF3 / Fold change vs veh, ILF3 / RFU 11762660_at / Fold change /veh 11762660_at / RFU VCAN (11757783_s_at) / Fold change /veh VCAN (11757783_s_at) / RFU DDX43 (11728927_at) / Fold change /veh DDX43 (11728927_at) / RFU KRT8 (11758188_x_at) / Fold change /veh KRT8 (11758188_x_at) / RFU NKD1 (11759106_at) / Fold change /veh NKD1 (11759106_at) / RFU SRD5A1 (11742802_a_at) / Fold change /veh SRD5A1 (11742802_a_at) / RFU TPSAB1 /// TPSB2 (11721975_s_at) / Fold change /veh TPSAB1 /// TPSB2 (11721975_s_at) / RFU GSTM3 (11746129_a_at) / Fold change /veh GSTM3 (11746129_a_at) / RFU IL23R (11737362_x_at) / Fold change /veh IL23R (11737362_x_at) / RFU TMEM51 (11727254_a_at) / Fold change /veh TMEM51 (11727254_a_at) / RFU PIWIL2 (11732686_x_at) / Fold change /veh PIWIL2 (11732686_x_at) / RFU ORM1 (11744905_x_at) / Fold change /veh ORM1 (11744905_x_at) / RFU CCDC152 (11743942_at) / Fold change /veh CCDC152 (11743942_at) / RFU ECM1 (11717891_a_at) / Fold change /veh ECM1 (11717891_a_at) / RFU IL23R (11748794_a_at) / Fold change /veh IL23R (11748794_a_at) / RFU TNFAIP8L3 (11732012_x_at) / Fold change /veh TNFAIP8L3 (11732012_x_at) / RFU MBOAT4 (11741988_at) / Fold change /veh MBOAT4 (11741988_at) / RFU 11764193_at / Fold change /veh 11764193_at / RFU TMEM53 (11763286_at) / Fold change /veh TMEM53 (11763286_at) / RFU MAGEB2 (11727129_at) / Fold change /veh MAGEB2 (11727129_at) / RFU TMEM200A (11744735_a_at) / Fold change /veh TMEM200A (11744735_a_at) / RFU CCDC152 (11751479_a_at) / Fold change /veh CCDC152 (11751479_a_at) / RFU FAM211A (11726209_a_at) / Fold change /veh FAM211A (11726209_a_at) / RFU RGS16 (11746705_a_at) / Fold change /veh RGS16 (11746705_a_at) / RFU VCAN (11755009_s_at) / Fold change /veh VCAN (11755009_s_at) / RFU RHOB (11743442_s_at) / Fold change /veh RHOB (11743442_s_at) / RFU RGS16 (11720943_a_at) / Fold change /veh RGS16 (11720943_a_at) / RFU RGS16 (11720944_at) / Fold change /veh RGS16 (11720944_at) / RFU, VPS4B / Fold change vs veh, VPS4B / RFU, CREB1 / Fold change vs veh, CREB1 / RFU, DNAJC13 / Fold change vs veh, DNAJC13 / RFU, GNAQ / Fold change vs veh, GNAQ / RFU, CDK5R1 / Fold change vs veh, CDK5R1 / RFU, ZRANB3 / Fold change vs veh, ZRANB3 / RFU, CUL4A / Fold change vs veh, CUL4A / RFU, CCNY / Fold change vs veh, CCNY / RFU, UFL1 / Fold change vs veh, UFL1 / RFU, COG3 / Fold change vs veh, COG3 / RFU, DIAPH2 / Fold change vs veh, DIAPH2 / RFU, SKA2 / Fold change vs veh, SKA2 / RFU, AFF3 / Fold change vs veh, AFF3 / RFU, LMF1 / Fold change vs veh, LMF1 / RFU, IPO11 / Fold change vs veh, IPO11 / RFU, DFFB / Fold change vs veh, DFFB / RFU, FOXP1 / Fold change vs veh, FOXP1 / RFU, CARD8 / Fold change vs veh, CARD8 / RFU, STRN3 / Fold change vs veh, STRN3 / RFU, ADK / Fold change vs veh, ADK / RFU, RASSF2 / Fold change vs veh, RASSF2 / RFU, WIPF1 / Fold change vs veh, WIPF1 / RFU, LARP1B / Fold change vs veh, LARP1B / RFU, RASA1 / Fold change vs veh, RASA1 / RFU, RB1 / Fold change vs veh, RB1 / RFU, PPFIA1 / Fold change vs veh, PPFIA1 / RFU, MAT2A / Fold change vs veh, MAT2A / RFU, CCT5 / Fold change vs veh, CCT5 / RFU, WDR92 / Fold change vs veh, WDR92 / RFU, CUX1 / Fold change vs veh, CUX1 / RFU, TTC7A / Fold change vs veh, TTC7A / RFU, TMEM135 / Fold change vs veh, TMEM135 / RFU, DEPTOR / Fold change vs veh, DEPTOR / RFU, CPM / Fold change vs veh, CPM / RFU, DNAJB6 / Fold change vs veh, DNAJB6 / RFU, CACNA2D3 / Fold change vs veh, CACNA2D3 / RFU, DTX4 / Fold change vs veh, DTX4 / RFU, TFCP2 / Fold change vs veh, TFCP2 / RFU, GMCL1 /// GMCL1P1 / Fold change vs veh, GMCL1 /// GMCL1P1 / RFU, AEBP2 / Fold change vs veh, AEBP2 / RFU, SNHG1 /// SNORD22 /// SNORD25 /// SNORD26 /// SNORD27 /// SNORD28 /// SNORD29 /// SNORD31 / Fold change vs veh, SNHG1 /// SNORD22 /// SNORD25 /// SNORD26 /// SNORD27 /// SNORD28 /// SNORD29 /// SNORD31 / Fold change (Aza/veh), C12orf56 (ProbeSet 11735607_a_at) / Fold change (ACY-1035/veh), C12orf56 (ProbeSet 11735607_a_at) / Fold change (Aza/veh), FGFR1OP (ProbeSet 11751329_s_at) / Fold change (ACY-1035/veh), FGFR1OP (ProbeSet 11751329_s_at) / Fold change (Aza/veh), VPS36 (ProbeSet 11739960_a_at) / Fold change (ACY-1035/veh), VPS36 (ProbeSet 11739960_a_at) / RFU SYPL1 (11715823_x_at) / Fold change /veh SYPL1 (11715823_x_at) / RFU IGFBP7 (11715501_s_at) / Fold change /veh IGFBP7 (11715501_s_at) / RFU REEP3 (11722064_at) / Fold change /veh REEP3 (11722064_at) / RFU IGLL1 (11728026_x_at) / Fold change /veh IGLL1 (11728026_x_at): dose or concentration left out as unconfirmed. The conditions noted are these: MV-4-11 cells, 48 hours.

As for `Nc1ccc(-c2cccs2)cc1NC(=O)c1ccc2c(c1)cc(C1CC1)n2CCN1CCOCC1` [ACY-1035], the “Fold change /veh ARHGAP8 /// PRR5-ARHGAP8 (11727945_x_at)” value was 1.04.

The record behind these values is paper PMC5218480 (PLoS ONE, 2017).
